# PubChem BioAssay AID330 (DTP/NCI, 2004)
# Toxic doses and inconclusive results are not listed.
# Tested on: P388 leukemia ip, CD2F1 mice, survival T/C
# Assay: NCI In Vivo Anticancer Drug Screen. Data for tumor model P388 Leukemia (intraperitoneal) in CD2F1 (CDF1) mice
# Conditions: endpoint: median survival time, higher = longer survival
# In short: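 Mice carrying the transplanted tumor received test compound or vehicle. Survival was recorded in each group, and the value is the treated-group measurement divided by that of the vehicle-treated control group.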
# [1] = dose: 6.25 mg/kg/injection, schedule: Q01DX009 (ip), vehicle: saline with Tween-80
# [2] = dose: 12.5 mg/kg/injection, schedule: Q01DX009 (ip), vehicle: saline with Tween-80
# [3] = dose: 60.0 mg/kg/injection, schedule: Q01DX005 (ip), vehicle: saline with Tween-80
# [4] = dose: 120.0 mg/kg/injection, schedule: Q01DX005 (ip), vehicle: saline with Tween-80
# [5] = dose: 6.25 mg/kg/injection, schedule: Q01DX009 (ip), vehicle: saline
# [6] = dose: 12.5 mg/kg/injection, schedule: Q01DX009 (ip), vehicle: saline
# [7] = dose: 50.0 mg/kg/injection, schedule: Q01DX009 (ip), vehicle: saline
# [8] = dose: 25.0 mg/kg/injection, schedule: Q01DX009 (ip), vehicle: saline with Tween-80
# [9] = dose: 100.0 mg/kg/injection, schedule: Q01DX009 (ip), vehicle: saline
# [10] = dose: 200.0 mg/kg/injection, schedule: Q01DX009 (ip), vehicle: saline
# [11] = dose: 100.0 mg/kg/injection, schedule: Q04DX003 (ip), vehicle: Klucel (hydroxypropylcellulose) (HPC)
# [12] = dose: 200.0 mg/kg/injection, schedule: Q04DX003 (ip), vehicle: Klucel (hydroxypropylcellulose) (HPC)
smiles,measurement,setting,value
CCSC(C(OC(C)=O)C(OC(C)=O)C(COC(C)=O)OC(C)=O)n1cc(F)c(=O)[nH]c1=O (stereo not drawn),T/C,"dose: 25.0 mg/kg/injection, schedule: Q01DX005 (ip), vehicle: other",97 % of control
same,T/C,"dose: 50.0 mg/kg/injection, schedule: Q01DX005 (ip), vehicle: other",110 % of control
same,T/C,"dose: 100.0 mg/kg/injection, schedule: Q01DX005 (ip), vehicle: other",105 % of control
same,T/C,"dose: 200.0 mg/kg/injection, schedule: Q01DX005 (ip), vehicle: other",107 % of control
same,T/C,"dose: 400.0 mg/kg/injection, schedule: Q01DX005 (ip), vehicle: other",100 % of control
same,T/C,"dose: 400.0 mg/kg/injection, schedule: Q01DX009 (ip), vehicle: other",92 % of control
NC(N)=N/N=C/c1ccc(-c2ccccc2)cc1,T/C,[1],104 % of control
same,T/C,"dose: 6.25 mg/kg/injection, schedule: Q04DX003 (ip), vehicle: saline with Tween-80",100 % of control
same,T/C,[2],104 % of control
same,T/C,"dose: 12.5 mg/kg/injection, schedule: Q04DX003 (ip), vehicle: saline with Tween-80",100 % of control
same,T/C,"dose: 25.0 mg/kg/injection, schedule: Q04DX003 (ip), vehicle: saline with Tween-80",100 % of control
COc1cc(C(O)C(CO)Oc2c(OC)cc(C3OCC4C(c5cc(OC)c(O)c(OC)c5)OCC34)cc2OC)ccc1O (stereo not drawn),T/C,"dose: 5.0 mg/kg/injection, schedule: Q01DX005 (ip), vehicle: sodium bicarbonate",107 % of control
same,T/C,"dose: 10.0 mg/kg/injection, schedule: Q01DX005 (ip), vehicle: sodium bicarbonate",109 % of control
same,T/C,"dose: 20.0 mg/kg/injection, schedule: Q01DX005 (ip), vehicle: sodium bicarbonate",106 % of control
same,T/C,"dose: 40.0 mg/kg/injection, schedule: Q01DX005 (ip), vehicle: sodium bicarbonate",100 % of control
CC(=O)C1C(=O)C(=O)N(c2ccccc2C)C1=O (stereo not drawn),T/C,"dose: 50.0 mg/kg/injection, schedule: Q01DX009 (ip), vehicle: Klucel (hydroxypropylcellulose) (HPC)",105 % of control
same,T/C,[3],103 % of control
same,T/C,"dose: 100.0 mg/kg/injection, schedule: Q01DX009 (ip), vehicle: Klucel (hydroxypropylcellulose) (HPC)",107 % of control
same,T/C,[4],100 % of control
same,T/C,"dose: 200.0 mg/kg/injection, schedule: Q01DX009 (ip), vehicle: Klucel (hydroxypropylcellulose) (HPC)",110 % of control
CC(=O)OCC#CCN1CCCCC1C (stereo not drawn),T/C,"dose: 50.0 mg/kg/injection, schedule: Q01DX005 (ip), vehicle: saline",111 % of control
same,T/C,"dose: 100.0 mg/kg/injection, schedule: Q01DX005 (ip), vehicle: saline",101 % of control
same,T/C,"dose: 200.0 mg/kg/injection, schedule: Q01DX005 (ip), vehicle: saline",103 % of control
Clc1c(Cl)c(Cl)c(C[n+]2ccccc2)c(Cl)c1Cl,T/C,[5],105 % of control
same,T/C,[6],98 % of control
same,T/C,"dose: 25.0 mg/kg/injection, schedule: Q01DX009 (ip), vehicle: saline",102 % of control
same,T/C,[7],99 % of control
Cn1c2c(c(=O)c3c4c(=O)c5c([nH]c4ccc31)CCCC5)CCCC2,T/C,"dose: 100.0 mg/kg/injection, schedule: Q04DX003 (ip), vehicle: saline with Tween-80",100 % of control
same,T/C,"dose: 200.0 mg/kg/injection, schedule: Q04DX003 (ip), vehicle: saline with Tween-80",94 % of control
same,T/C,"dose: 400.0 mg/kg/injection, schedule: Q04DX003 (ip), vehicle: saline with Tween-80",86 % of control
COc1ccc2cc3cc[n+](C)cc3cc2c1OC,T/C,"dose: 12.5 mg/kg/injection, schedule: Q01DX009 (ip), vehicle: water",114 % of control
same,T/C,"dose: 25.0 mg/kg/injection, schedule: Q01DX009 (ip), vehicle: water",119 % of control
C=C(COC(C)=O)[C@@H](C)C(=O)C1OCOC(C2CC(=O)NC(=O)C2)[C@@H]1OC(C)=O (stereo partly drawn),T/C,"dose: 0.01 mg/kg/injection, schedule: Q01DX009 (ip), vehicle: distilled water + alcohol",98 % of control
same,T/C,"dose: 0.03 mg/kg/injection, schedule: Q01DX009 (ip), vehicle: distilled water + alcohol",102 % of control
same,T/C,"dose: 0.06 mg/kg/injection, schedule: Q01DX009 (ip), vehicle: distilled water + alcohol",102 % of control
same,T/C,"dose: 0.12 mg/kg/injection, schedule: Q01DX009 (ip), vehicle: distilled water + alcohol",102 % of control
CCN(CC)C1=NS(=O)(=O)c2ccccc2C(=O)C1C (stereo not drawn),T/C,"dose: 100.0 mg/kg/injection, schedule: Q04DX002 (ip), vehicle: Klucel (hydroxypropylcellulose) (HPC)",102 % of control
same,T/C,"dose: 200.0 mg/kg/injection, schedule: Q04DX002 (ip), vehicle: Klucel (hydroxypropylcellulose) (HPC)",100 % of control
same,T/C,"dose: 400.0 mg/kg/injection, schedule: Q04DX002 (ip), vehicle: Klucel (hydroxypropylcellulose) (HPC)",100 % of control
CCCCCCCC[N+]1(CC)CCCCC1,T/C,"dose: 3.12 mg/kg/injection, schedule: Q01DX009 (ip), vehicle: saline",104 % of control
same,T/C,[5],109 % of control
same,T/C,[6],109 % of control
CCCc1onc(-c2noc(CCC)c2CC)c1CC,T/C,"dose: 60.0 mg/kg/injection, schedule: Q01DX005 (ip), vehicle: saline",100 % of control
same,T/C,"dose: 120.0 mg/kg/injection, schedule: Q01DX005 (ip), vehicle: saline",95 % of control
same,T/C,"dose: 240.0 mg/kg/injection, schedule: Q01DX005 (ip), vehicle: saline",103 % of control
CC12CC3(Nc4ccccc4C3(C)O)OC1(C)c1ccccc1N2 (stereo not drawn),T/C,"dose: 50.0 mg/kg/injection, schedule: Q01DX005 (ip), vehicle: saline with Tween-80",95 % of control
same,T/C,"dose: 100.0 mg/kg/injection, schedule: Q01DX005 (ip), vehicle: saline with Tween-80",92 % of control
same,T/C,"dose: 200.0 mg/kg/injection, schedule: Q01DX005 (ip), vehicle: saline with Tween-80",92 % of control
CN(CO)c1nc(N(C)CO)nc(N(C)CO)n1,T/C,[2],110 % of control
same,T/C,[6],103 % of control
same,T/C,[8],119 % of control
same,T/C,[7],160 % of control
same,T/C,"dose: 100.0 mg/kg/injection, schedule: Q01DX009 (ip), vehicle: saline with Tween-80",151 % of control
same,T/C,[9],203 % of control
C#CCOCC1CO1 (stereo not drawn),T/C,[7],110 % of control
same,T/C,[9],110 % of control
same,T/C,[10],115 % of control
COC(=O)C1C(O)CCC2CN3CCc4c([nH]c5cccc(OC)c45)C3CC21 (stereo not drawn),T/C,"dose: 25.0 mg/kg/injection, schedule: Q01DX005 (ip), vehicle: Klucel (hydroxypropylcellulose) (HPC)",104 % of control
same,T/C,"dose: 50.0 mg/kg/injection, schedule: Q01DX005 (ip), vehicle: Klucel (hydroxypropylcellulose) (HPC)",105 % of control
same,T/C,"dose: 100.0 mg/kg/injection, schedule: Q01DX005 (ip), vehicle: Klucel (hydroxypropylcellulose) (HPC)",104 % of control
same,T/C,"dose: 200.0 mg/kg/injection, schedule: Q01DX005 (ip), vehicle: Klucel (hydroxypropylcellulose) (HPC)",101 % of control
COc1ccc(CNCCNCc2ccc(OC)cc2)cc1,T/C,"dose: 50.0 mg/kg/injection, schedule: Q01DX001 (ip), vehicle: Klucel (hydroxypropylcellulose) (HPC)",93 % of control
same,T/C,"dose: 100.0 mg/kg/injection, schedule: Q01DX001 (ip), vehicle: Klucel (hydroxypropylcellulose) (HPC)",93 % of control
same,T/C,"dose: 200.0 mg/kg/injection, schedule: Q01DX001 (ip), vehicle: Klucel (hydroxypropylcellulose) (HPC)",90 % of control
OC1CN(CCCCCCN2CC(O)ON2)NO1 (stereo not drawn),T/C,[7],93 % of control
same,T/C,[9],93 % of control
same,T/C,[10],97 % of control
CSc1ncc(CO)c(N)n1,T/C,[11],90 % of control
same,T/C,[12],95 % of control
same,T/C,"dose: 400.0 mg/kg/injection, schedule: Q04DX003 (ip), vehicle: Klucel (hydroxypropylcellulose) (HPC)",95 % of control
O=C(Nc1ccc(Cl)cc1)Nc1nnc2nc(CC(=O)c3ccccc3)c(=O)[nH]n12,T/C,[3],98 % of control
same,T/C,[4],99 % of control
same,T/C,"dose: 240.0 mg/kg/injection, schedule: Q01DX005 (ip), vehicle: saline with Tween-80",91 % of control
O=C(c1ccccc1)C(O)n1ccnc1 (stereo not drawn),T/C,"dose: 50.0 mg/kg/injection, schedule: Q01DX009 (ip), vehicle: distilled water + alcohol",102 % of control
same,T/C,"dose: 100.0 mg/kg/injection, schedule: Q01DX009 (ip), vehicle: distilled water + alcohol",104 % of control
same,T/C,"dose: 200.0 mg/kg/injection, schedule: Q01DX009 (ip), vehicle: distilled water + alcohol",107 % of control
Cc1ccc(OP(=O)(Oc2ccc(C)cc2)Oc2ccc(C)cc2)cc1.Cc1ccc(OP(=O)(Oc2ccc(C)cc2)Oc2ccc(C)cc2)cc1.Cc1ccc(OP(=O)(Oc2ccc(C)cc2)Oc2ccc(C)cc2)cc1.Cc1ccc(OP(=O)(Oc2ccc(C)cc2)Oc2ccc(C)cc2)cc1.[O-][Cl+3]([O-])([O-])O.[Zn+2],T/C,[11],98 % of control
same,T/C,[12],102 % of control
CC(=O)C(=CN(C)c1ccc([N+](=O)[O-])cc1)C(C)=O,T/C,[1],111 % of control
same,T/C,[2],92 % of control
same,T/C,[8],100 % of control
same,T/C,[9],91 % of control
same,T/C,[10],91 % of control
